Source: patent publication US20090062253A1, “HETEROCYCLODIAZEPINE CANNABINOID RECEPTOR MODULATORS FOR TREATMENT OF DISEASE” (KALYPSYS, INC., priority 2007, published 2009)

Key:
Human CB2 = target: T1, Human CB2 (Homo sapiens, UniProt P34972); assay: Human CB2 Radioligand Binding Assay; settings: membranes from stably transfected CHO CB2 cells; competition with [3H] CP-55,940; read-out: CB2 Ligand Binding Asssay
T1 construct: expressed in transfected cells; membrane preparation
Protocol: (§1) This receptor binding filtration assay measures the receptor-ligand interactions of compounds by measuring ability to compete with a radiolabeled control ligand. Reactions were performed in 96 deep-well plate (Costar 3961) with a final volume of 600 ul. Compounds were added to each well either in single point (10 uM final) or dose-response. Compounds were delivered in DMSO or further diluted in incubation buffer to a final assay DMSO concentration of 1%. Incubation buffer (50 mM Tris-HCl pH 7.4, 2.5 mM EGTA, 5 mM MgCl2, 5.0 mg/ml fatty acid free BSA) was added to each well. Following buffer addition, [^3H] CP-55,940 was added. Tritiated CP-55,940 (Perkin Elmer) was used at the Kd determined from prior saturation binding experiments conducted on each lot of membranes. Membrane preparations from stably transfected CHO CB2 cells were added and the reaction was incubated for 90 minutes at 30° C. Unifilter GF/C filtration plates (Perkin Elmer) were pre-wet with 0.05% polyethylenimine. Samples were transferred to Unifilter plates and separation of unbound radioligand was achieved using a vacuum manifold (Millipore). Following thorough washing with 5 ml/well ice-cold wash buffer (50 mM Tris-HCl pH 7.4, 2.5 mM EGTA, 5 mM MgCl2, 0.5 mg/ml fatty acid free BSA), filterplates were dried completely. Betaplate Scint Scintillation cocktail (25 ul, Perkin Elmer) was applied and plates were read using Microbeta Trilux (Wallac). Data analysis was performed in Spotfire. Activity of the positive control (100 nM CP-55,940) was set as 100% efficacy.
Stable recombinant Human CB2-CHO cell membranes were prepared as follows: Chinese Hamster Ovarian (CHO) cells stably expressing human cannabinoid receptor type 2 were grown to ˜90% confluence in 15×100 mm culture dishes under puromycin selection (5 ug/ml) Cells were harvested from culture flasks using a cell scraper, were washed once with cold phosphate-buffered saline (calcium and magnesium free) and pelleted by centrifugation at 400 g for 5 min at 4° C. Cell pellet was washed once with cold phosphate-buffered saline and centrifuged again at 400×g for 5 min at 4° C. The pellet was suspended in ice-cold lysis buffer (10 mM Tris-HCl, 0.1 mM EDTA, containing […], pH 7.5) and homogenized in a chilled 7 ml glass dounce homogenizer using 50 strokes. The homogenate was centrifuged at 400 g for 15 min at 4° C. The cloudy supernatant was collected and centrifuged at 41000 g for 30 min at 4° C. The resulting pellet was washed with ice-cold sucrose-free lysis buffer and centrifuged again at 41000 g for 30 min at 4° C. The membrane pellet was suspended in sucrose-free storage buffer (10 mm Tris-HCl, 0.1 mM EDTA, pH 7.5) to a concentration of 2-3 mg protein/ml. Aliquots were flash frozen in liquid nitrogen and stored at −80° C. Concentration was determined using Dc protein assay kit (Bio-Rad).

[1] = target: T2, human cannabinoid receptor type 1 (Homo sapiens, UniProt P21554); assay: Human CB1 Radioligand Binding Assay (basis of selectivity CB2 vs. CB1)
T2 construct: purchased Perkin Elmer RBHCB1M; host or cells: HEK 293 EBNA cells
Protocol: as §1
The CB1 binding assay was performed as described above except that HEK 293 EBNA cells expressing human cannabinoid receptor type 1 (Perkin Elmer cat #RBHCB1M) were used according the manufacturer's instructions. The incubation buffer was composed of 50 mM Tris-HCl pH 7.4, 2.5 mM EDTA, 5 mM MgCl2, 5.0 mg/ml fatty acid free BSA and the wash buffer was composed of 50 mM Tris-HCl pH 7.4, 2.5 mM EDTA, 5 mM MgCl2, 0.5 mg/ml fatty acid free BSA. Activity of the positive control (100 nM CP-55,940) was set as 100% efficacy.

T2 sequence (P21554 whole entry): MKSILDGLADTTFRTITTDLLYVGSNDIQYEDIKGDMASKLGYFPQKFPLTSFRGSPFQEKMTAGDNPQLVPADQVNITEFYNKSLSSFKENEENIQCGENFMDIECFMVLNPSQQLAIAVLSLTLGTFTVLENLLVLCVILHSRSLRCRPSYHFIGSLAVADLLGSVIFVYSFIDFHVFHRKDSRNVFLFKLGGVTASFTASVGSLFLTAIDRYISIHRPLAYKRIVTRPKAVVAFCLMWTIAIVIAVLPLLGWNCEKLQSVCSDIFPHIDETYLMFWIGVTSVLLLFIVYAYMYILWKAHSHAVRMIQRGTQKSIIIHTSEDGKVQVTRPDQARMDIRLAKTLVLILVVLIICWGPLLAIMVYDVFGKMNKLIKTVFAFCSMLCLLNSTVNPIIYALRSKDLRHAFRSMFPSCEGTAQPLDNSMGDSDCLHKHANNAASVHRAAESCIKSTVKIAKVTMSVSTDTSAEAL
T1 sequence (P34972 whole entry): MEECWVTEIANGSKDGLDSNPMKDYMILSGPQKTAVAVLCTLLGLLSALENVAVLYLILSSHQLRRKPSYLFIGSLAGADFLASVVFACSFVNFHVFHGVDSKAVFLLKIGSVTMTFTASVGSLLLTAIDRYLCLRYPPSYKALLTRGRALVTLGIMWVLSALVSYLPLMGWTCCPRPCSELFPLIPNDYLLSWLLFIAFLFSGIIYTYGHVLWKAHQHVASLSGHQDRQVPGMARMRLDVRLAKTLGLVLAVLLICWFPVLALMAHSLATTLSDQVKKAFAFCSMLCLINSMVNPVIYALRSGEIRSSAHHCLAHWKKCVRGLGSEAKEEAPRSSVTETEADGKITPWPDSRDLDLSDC

Row | SMILES | IC50 (radioligand displacement) (Human CB2) [nM] | Selectivity, CB2 vs. CB1 [1]
1 | CC(C)(C)c1ccc(C2c3cccn3CCCC2NC(=O)Nc2ccc(F)cc2F)cc1 (mixture of isomers) [Example 116, 1-(9-(4-tert-Butylphenyl)-6,7,8,9-tetrahydro-5H-pyrrolo[1,2-a]azepin-8-yl)-3-(2,4-difluorophenyl)urea] | < 1000 | − (− indicates < 10-fold)
2 | CC(C)(C)c1ccc(C2c3cccn3CCCC2NC(=O)Nc2ccc(F)c(F)c2)cc1 (mixture of isomers) [Example 117, 1-(9-(4-tert-Butylphenyl)-6,7,8,9-tetrahydro-5H-pyrrolo[1,2-a]azepin-8-yl)-3-(3,4-difluorophenyl)urea] | < 1000 | − (− indicates < 10-fold)
3 | CC(C)(C)c1ccc(C2c3cccn3CCCC2NC(=O)Nc2ccc(C(F)(F)F)cc2)cc1 (mixture of isomers) [Example 122, 1-(9-(4-tert-Butylphenyl)-6,7,8,9-tetrahydro-5H-pyrrolo[1,2-a]azepin-8-yl)-3-(4-(trifluoromethyl)phenyl)urea] | < 1000 | + (+ indicates > 10-fold)
4 | CC(C)(C)c1ccc(CC2[C@@H]3CCCN3CCCN2C(=O)Nc2ccc(F)cc2F)cc1 (mixture of isomers) [Example 124, (9aS)-1-(4-tert-Butylbenzyl)-N-(2,4-difluorophenyl)hexahydro-1H-pyrrolo[1,2-a][1,4]diazepine-2(3H)-carboxamide] | > 1000 | − (− indicates < 10-fold)
5 | CC(C)(C)c1ccc(CC2[C@@H]3CCCN3CCCN2C(=O)Nc2ccc(Cl)cc2)cc1 (mixture of isomers) [Example 125, (9aS)-1-(4-tert-Butylbenzyl)-N-(4-chlorophenyl)hexahydro-1H-pyrrolo[1,2-a][1,4]diazepine-2(3H)-carboxamide] | > 1000 | − (− indicates < 10-fold)
6 | CC(C)(C)c1ccc(CC2[C@@H]3CCCN3CCCN2C(=O)Nc2ccccc2)cc1 (mixture of isomers) [Example 126, (9aS)-1-(4-tert-Butylbenzyl)-N-phenylhexahydro-1H-pyrrolo[1,2-a][1,4]diazepine-2(3H)-carboxamide] | > 1000 | − (− indicates < 10-fold)
7 | CC(C)(C)c1ccc(CC2[C@@H]3CCCN3CCCN2C(=O)Nc2ccc(F)cc2)cc1 (mixture of isomers) [Example 127, (9aS)-1-(4-tert-Butylbenzyl)-N-(4-fluorophenyl)hexahydro-1H-pyrrolo[1,2-a][1,4]diazepine-2(3H)-carboxamide] | > 1000 | − (− indicates < 10-fold)
8 | O=C(Nc1ccc(F)cc1F)[C@H]1CCCn2cccc2[C@@H]1c1ccccc1 (relative stereo) [Example 105, (8,9-trans)-N-(2,4-Difluorophenyl)-9-phenyl-6,7,8,9-tetrahydro-5H-pyrrolo[1,2-a]azepine-8-carboxamide] | > 1000 | − (− indicates < 10-fold)
9 | O=C(Nc1ccc(F)c(F)c1)[C@H]1CCCn2cccc2[C@@H]1c1ccccc1 (relative stereo) [Example 107, (8,9-trans)-N-(3,4-Difluorophenyl)-9-phenyl-6,7,8,9-tetrahydro-5H-pyrrolo[1,2-a]azepine-8-carboxamide] | > 1000 | − (− indicates < 10-fold)
10 | O=C(Nc1ccc(Cl)cc1)[C@H]1CCCn2cccc2[C@@H]1c1ccccc1 (relative stereo) [Example 109, (8,9-trans)-N-(4-Chlorophenyl)-9-phenyl-6,7,8,9-tetrahydro-5H-pyrrolo[1,2-a]azepine-8-carboxamide] | > 1000 | − (− indicates < 10-fold)
11 | O=C(Nc1ccc(Cl)cc1)[C@H]1CCCn2cccc2[C@H]1c1ccccc1 (relative stereo) [Example 110, (8,9-cis)-N-(4-Chlorophenyl)-9-phenyl-6,7,8,9-tetrahydro-5H-pyrrolo[1,2-a]azepine-8-carboxamide] | < 1000 | − (− indicates < 10-fold)
12 | O=C(Nc1ccc(C(F)(F)F)cc1)[C@H]1CCCn2cccc2[C@@H]1c1ccccc1 (relative stereo) [Example 111, (8,9-trans)-9-Phenyl-N-(4-(trifluoromethyl)phenyl)-6,7,8,9-tetrahydro-5H-pyrrolo[1,2-a]azepine-8-carboxamide] | > 1000 | − (− indicates < 10-fold)
13 | O=C(Nc1ccc(OC(F)(F)F)cc1)[C@H]1CCCn2cccc2[C@H]1c1ccccc1 (relative stereo) [Example 114, (8,9-cis)-9-Phenyl-N-(4-(trifluoromethoxy)phenyl)-6,7,8,9-tetrahydro-5H-pyrrolo[1,2-a]azepine-8-carboxamide] | < 1000 | − (− indicates < 10-fold)
14 | O=C(Nc1ccc(F)cc1F)C1CCCn2cccc2C1c1ccccc1 (single isomer, unassigned) [Example 106, (8,9-cis)-N-(2,4-Difluorophenyl)-9-phenyl-6,7,8,9-tetrahydro-5H-pyrrolo[1,2-a]azepine-8-carboxamide] | < 1000 | + (+ indicates > 10-fold)
15 | O=C(Nc1ccc(F)c(F)c1)C1CCCn2cccc2C1c1ccccc1 (single isomer, unassigned) [Example 108, (8,9-cis)-N-(3,4-Difluorophenyl)-9-phenyl-6,7,8,9-tetrahydro-5H-pyrrolo[1,2-a]azepine-8-carboxamide] | > 1000 | − (− indicates < 10-fold)
16 | O=C(Nc1ccc(OC(F)(F)F)cc1)C1CCCn2cccc2C1c1ccccc1 (single isomer, unassigned) [Example 113, (8,9-trans)-9-Phenyl-N-(4-(trifluoromethoxy)phenyl)-6,7,8,9-tetrahydro-5H-pyrrolo[1,2-a]azepine-8-carboxamide] | > 1000 | − (− indicates < 10-fold)
17 | CC(C)(C)c1ccc(C2c3cccn3CCCC2NC(=O)Nc2ccc(Cl)cc2Cl)cc1 (single isomer, unassigned) [Example 118, 1-(9-(4-tert-Butylphenyl)-6,7,8,9-tetrahydro-5H-pyrrolo[1,2-a]azepin-8-yl)-3-(2,4-dichlorophenyl)urea] | < 1000 | − (− indicates < 10-fold)
18 | CC(C)(C)c1ccc(C2c3cccn3CCCC2NC(=O)Nc2ccc(Cl)cc2Cl)cc1 (single isomer, unassigned) [Example 119, 1-(9-(4-tert-Butylphenyl)-6,7,8,9-tetrahydro-5H-pyrrolo[1,2-a]azepin-8-yl)-3-(2,4-dichlorophenyl)urea] | > 1000 | − (− indicates < 10-fold)
19 | CC(C)(C)c1ccc(C2c3cccn3CCCC2NC(=O)Nc2ccc(Cl)c(Cl)c2)cc1 (single isomer, unassigned) [Example 120, 1-(9-(4-tert-Butylphenyl)-6,7,8,9-tetrahydro-5H-pyrrolo[1,2-a]azepin-8-yl)-3-(3,4-dichlorophenyl)urea] | > 1000 | − (− indicates < 10-fold)
